Assays:
Format in all cases: in vivo, rat (Wistar-Han)
lipid peroxidation [1] = test: Urinary TBARS in rats after 4 weeks of diet; settings: diet for 4 weeks
Method: (§1) 40 weaned male rats of the Wistar-Han type (IFFA-CREDO; L'Arbresle, France) 6 week old and weighing approximately 150 g were used. The rats were placed in cages with a wire mesh back in a temperature-controlled room (22° C.) with day/night cycles of 12 hours. The animals were treated according to the recommendations of the INRA Ethics Committee, decree No. 87-848.
(§2) First of all the rats were fed following a semi-purified starch-based diet for 7 days: They were then randomly divided into 4 groups of 10 rats: one starch group (A), one fructose group (F), one starch+FOS group (A/FOS) and one fructose+FOS group (F/FOS). They then followed their appropriate diet for 4 weeks. […]
(§3) The FOS (Raftilose® P95) were obtained from ORAFTI, Thienen, Belgium. They were introduced into the food gradually in order to avoid diarrhoea which could occur in response to too rapid an administration of large quantities of this compound. […]
(§4) 4 days before sacrifice, the animals were housed individually in stainless steel cages with ad libitum access to the water and food. Urine-samples were recovered 24 hours before sacrifice in 50 ml graduated tubes, the volumes were precisely measured, the samples were then centrifuged and kept at −80° C. until analysis. […]
(§5) The levels of plasma TBARS were determined by spectrofluorometry on an LS 5 device (Perkin Elmer, Norwalk, Conn., USA). […]

[2] = Plasma vitamin E concentration and vitamin E/triglycerides ratio in rats after 4 weeks of diet; settings: diet for 4 weeks
Method: as §1
(§6) First of all the rats were fed following a semi-purified starch-based diet for 7 days: They were then randomly divided into 4 groups of 10 rats: one starch group (A), one fructose group (F), one starch+FOS group (A/FOS) and one fructose+FOS group (F/FOS). They then followed their appropriate diet for 4 weeks.
(§7) The food and distilled water were provided ad libitum. The composition of the food rations was as follows (in g/kg):
The FOS (Raftilose® P95) were obtained from ORAFTI, Thienen, Belgium. They were introduced into the food gradually in order to avoid diarrhoea which could occur in response to too rapid an administration of large quantities of this compound. Raftilose® P95 is a mixture of Glucosyl-(Fructosyl)n-Fructose (64%) and of (Fructosyl)m-Fructose (36%) with average degrees of polymerization of 4.8.
as §4, with “analysis. At the time of sacrifice the rats were weighed, then anesthetized using sodium pentobarbital (intra-peritoneal injection at 40 mg/kg) and killed.” for “analysis.”
The plasma concentrations of vitamin E were determined by reversed-phase high performance liquid chromatography on a Kontron series 400 device (Kontron St Quentin en Yvelines, France) using a hexane extract. α-tocopherol acetate (Sigma) was added to the samples as internal control. […] The compounds were detected by UV (292 nm) then quantified with internal and external calibrations using control solutions.

heart lipids = test: Heart TBARS: susceptibility of heart lipids to FeSO4-ascorbate induced peroxidation; settings: rats, diet for 4 weeks
Method: as §1, §2, §3, §4, §5

lipid peroxidation [3] = test: Plasma TBARS in rats after 4 weeks of diet
Method: as §1, §2, §3, §4, §5

[4] = Plasma triglyceride concentration in rats after 4 weeks of diet; settings: diet for 4 weeks, average of 10 animals ± standard deviation
Method: as §1, §6, §7, §3, §4

[5] = Fructose vs Starch group, Fructose+FOS vs Fructose group

Structure (SMILES): O=C(CO)[C@@H](O)[C@H](O)[C@H](O)CO [Fructose]
- Urinary TBARS, comparison between diet groups (lipid peroxidation [1]; [5]): significantly higher
- Urinary TBARS (lipid peroxidation [1]; urine of 24 hours, average of 10 animals ± standard deviation): 21.97 ± 1.58 nmol/24 h
- Ratio Vitamin E/TG, effect of the diet ([2]; diet rich in fructose vs starch diet, supplementation with FOS): lowers the ratio Vitamin E/TG
- Vitamin E/TG ([2]; plasma ratio, average of 10 animals ± standard deviation): 2.68 ± 0.12 µg/µmol
- Vitamin E ([2]; plasma, average of 10 animals ± standard deviation): 9.74 ± 0.92 µg/mL
- Heart TBARS, comparison between diet groups (heart lipids; [5]): significantly higher
- Heart TBARS (heart lipids; heart homogenate, FeSO4 (2 μmol/l)-ascorbate (50 μmol/l), 30 minutes at 37° C., average of 10 animals ± standard deviation): 98.8 ± 6.5 nmol/g of fresh weight
- Plasma TBARS (lipid peroxidation [3]; diet ad libitum for 4 weeks, FOS 100 g/kg diet, sugar 650 or 550 g/kg, average of 10 animals ± standard deviation): 2.14 ± 0.07 nmol/mL
- Plasma TBARS, comparison between diet groups (lipid peroxidation [3]; diet for 4 weeks, Fructose vs Starch group, Fructose+FOS vs Fructose group): significantly higher
- Triglycerides (TG) [4]: 3.73 ± 0.45 mM

From patent US20060252725A1, “Use of prebiotics for preventing or treating oxidation stress” (priority 2002, published 2006)
